Experimental data as given in US20120045528A1, “USE OF N20 GAS FOR TREATING CHRONIC PAIN” (priority 2009, published 2012).
“Also recorded” adds a separate entry of the source. Read-outs that look alike come from different tables or passages of the source.

Columns and labels:
[1] = test system: neuropathic rat (sciatic nerve constriction, CCI); assay: Nociceptive threshold by vocalization test to a mechanical stimulus (Randall-Selitto) in rats with mononeuropathy from sciatic nerve constriction (CCI); format: in vivo, male Sprague-Dawley rats
Procedure: A mononeuropathy is induced in male Sprague-Dawley rats (8 per group) by sciatic nerve constriction. More specifically, on D0, the rats are anesthetized with halothane and the sciatic nerve (injured hind paw side) is prepared using chromic catgut, 4 filament. Neuropathic pain lasting more than 40 days is thus induced.
On D7, the rats are placed in a hermetic chamber where they will inhale, for 75 minutes, the test gas mixture or medical air in the control rats (Sham). Repeated exposures to the mixtures take place on D7, D8, and D9.
Other rats are subjected to comparative treatments with conventional painkilling products, namely ketamine (3×10 mg/kg, sc) and morphine (1 mg/kg, sc).
The nociceptive threshold is then measured via a vocalization test in response to a mechanical stimulus (Randall-Selitto).
The data obtained per measurement are expressed as mean (±standard deviation). The level of significance is set starting from P<0.05.

[2] = test system: human beings; settings: cited from earlier work
[3] = morphine 1 mg/kg sc, neuropathic rat
[4] = N2O concentration 5-25% (vol. %)
[5] = N2O concentration 26-45% (vol. %)
[6] = N2O concentration 45-65% (vol. %)

**Q.** With `CNC1(c2ccccc2Cl)CCCCC1=O` (stereo not shown) [ketamine] as the molecule, how does the “duration of anti-hyperalgesic effect” value ([1]; ketamine 3x10 mg/kg sc, neuropathic rat) read?
**A.** The value was no more than 2 days.

**Q.** Which results are given for `CN1CC[C@]23c4c5ccc(O)c4O[C@H]2[C@@H](O)C=C[C@H]3[C@H]1C5` [morphine]?
**A.** duration of analgesic effect ([1]; morphine 1 mg/kg sc, D14, neuropathic rat): 30 min; delayed effect (following days) / anti-hyperalgesic long-term effect [1, 3]: without a delayed effect; also recorded: without any anti-hyperalgesic long-term effect; duration of effect following administration (in words) [1, 3]: limited to a few minutes

**Q.** With `O=C1CC[C@@]2(O)[C@H]3Cc4ccc(O)c5c4[C@@]2(CCN3CC2CC2)[C@H]1O5` [naltrexone] as the molecule, how does the “effect on the anti-sensitization effect of 50% nitrous oxide on the following days” value ([1]; naltrexone given to block the analgesic effect of 50% nitrous oxide on D7) read?
**A.** The value was “does not modify”.

**Q.** Which results are given for `[N-]=[N+]=O` [nitrous oxide]?
**A.** duration of sustained reduction of chronic pain of neuropathic type ([1]; rat, in vivo): > 1 month; Amnesia [2, 4]: none; Analgesia [2, 4]: none; Contact [2, 4]: present; Psychic effects [2, 4]: slight; Amnesia [2, 5]: slight; Analgesia [2, 5]: weak; Contact [2, 5]: present; Psychic effects [2, 5]: drunkenness; Amnesia [2, 6]: complete; Analgesia [2, 6]: moderate; Contact [2, 6]: present; Psychic effects [2, 6]: drowsiness; Psychic effects, Amnesia, Analgesia, Contact ([2]; N2O concentration 66-85% (vol. %)): Patient unconscious
